Structures are written as SMILES.

The test system of the assay is AR42J tumor. Nature of the assay: Combination efficacy study with 5-fluorouracil. To be noted: 5-fluorouracil alone, 15mg/kg once per week for nine weeks; post cell injection. In kind it is in vivo, mice.

Take `O=c1[nH]cc(F)c(=O)[nH]1` [5-fluorouracil]: the median survival is recorded as 2.4 weeks.

(Values after PMC6497546 (Molecular cancer therapeutics, 2019).)
